Experiments:
AβOs [1] = test: Western blot assay of AβOs formation in MC65 cells (6E10 antibody); assay type: cell-based, human; settings: 10 μM, 24 hrs after removal of TC
Text: Inhibition of AβOs production by designed BMAOIs. […] The whole cell assay is a composite of not only Aβ oligomerization inhibition but also permeability, stability and other factors will validate the accessibility and function of our BMAOIs. MC65 is a human neuroblastoma cell line that conditionally expresses C99, the C-terminus fragment of APP using tetracycline (TC) as transgene suppressor.^38 Upon removal of TC, these cells can produce intracellular Aβ aggregates including small AβOs. […] All BMAOIs were first evaluated at a single concentration of 10 μM. Candidate compounds with inhibitory activities at this concentration were further evaluated in a dose-dependent manner in the following assays. […]
Western blot assay. […] Pellet was lysed by sonication in 1× lysis buffer (62.5 mM Tris base, pH6.8, 2% SDS, 50 mM DTT, 10% glycerol, 0.1% bromphenol blue, and […] each chymostatin, leupeptin, aprotinin, pepstatin, and soybean trypsin inhibitor) and protein level was determined using Coomassie Protein Assay Reagent (Pierce, Rockford, Ill.). […]

AβOs [2] = test: Immunocytochemistry assay of AβOs in MC65 cells (A11 antibody); assay type: cell-based, human; settings: 10 μM, 24 hrs after removal of TC
Protocol: MC65 cells were treated with the indicated compounds (10 μM) immediately after the removal of TC. After 24 hrs, the cells were fixed and immunofluorescently stained for AβOs, CM/LR, and nucleus and imaged with a Leica TCS-SP2 AOBS confocal laser scanning microscope. Five areas were examined.
Immunocytochemistry assay. MC65 cells were plated onto Lab-Tee chamber slides (1×10^4 cells/well). After 24 hrs incubation at 37° C. and 5% CO2, Opti-MEM was added (with or without TC) and followed by test compounds. MC65 cells were incubated for 24 hrs. MC65 cells were rinsed 3× with PBS and incubated with Alexa 488-conjugated CTX-B (10 ug/mL) for 15 min on ice. After rinsing once with ice-cold PBS, cells were fixed for 30 min with 4% paraformaldehyde. MC65 cells were permeabilized for 30 min with 0.1% Triton X 100. Then MC65 cells were stained with A11 rabbit antibody followed by anti-rabbit Alexa 568 (1:500). Finally MC65 cells were treated with DAPI (5 ug/mL) and mounted with Vectashield Mounting Media. Cell fluorescence was analyzed by a Leica TCS-SP2 AOBS confocal laser scanning microscope equipped with blue diode, Argon, and 3 HeNe (lasers as well as a spectrophotometer based detection system with variable detector windows) using excitation lines at 355 nm, 488 nm, and 568 nm for DAPI, Alexa 488-conjugated CTX-B, and Alexa Fluor 568 donkey anti-rabbit IgG. […]

SH-SY5Y cells = test: Cytotoxicity assay in differentiated SH-SY5Y cells treated with AβOs; assay type: cell-based, human; settings: AβOs 1 μM, 48 hrs, all of the tested concentrations
Protocol: To further verify whether 14 can protect cells from extracellular AβOs-induced cytotoxicity, all trans-retinoic acid differentiated human SH-SY5Y cells were employed.
Cytotoxicity assay in differentiated SH-SY5Y cells. SH-SY5Y cells were plated at 10,000 cells/well in type 1 collagen coated 96-well plates (Invitrogen) and were differentiated in Opti-MEM supplemented with 2% B-27 (Invitrogen) and 10 μM all-trans-retinoic acid for 7 days. The medium was removed and replaced with fresh maintenance medium. Freshly prepared Aβ42 oligomers in Ham's F-12 medium (1 μM) was added to cells for 48 hrs at 37° C. with or without test compounds. After treatment, 20 uL CellTiter 96 AQueous One Solution (Promega, Madison, Wis.) were added to each well and the plates were incubated at 37° C., 5% CO2 for 2-4 hrs. The plates were read at 490 nm in FlexStation III plate reader (Molecular Devices). Each data point was averaged from six replicates and the experiments were independently repeated at least three times.

NK cells = test: IL-2 augmented natural killer (NK) cell activity; assay type: cell-based, B6C3F1 mice; settings: 10 μM
Protocol: IL-2 augmented natural killer (NK) cell activity. […] Recombinant IL-2 (Chiron, Emeryville, Calif.) at a volume of 50 μL was added to each well so that the final concentration of IL-2 was 5000 fU/mL. The plates were cultured overnight in the presence of 1 or 14 (10 μM), and then assayed for NK cell activity using ^51Cr-labeled YAC-1 cells as the target cells. The ^51Cr-YAC-1 cells were added to each well of a 96-well plate to obtain E:T ratio of 50:1. […] Following 4 hrs incubation, the plates were centrifuged, and 0.1 mL of the supernatant was removed from each well and the radioactivity counted. The mean percentage of cytotoxicity was determined.

in vitro = settings: human, Caco-2
Protocol: Assessment of permeability and P-glycoprotein using Caco-2 cell model. […] To test whether 14 has the potential to reach the brain, we determined its permeability and transport directionality using the Caco-2 model.^48 Although the Caco-2 cell monolayer model is derived from the colon rather than the brain, this model expresses efflux transporters such as P-glycoprotein which are also expressed at the BBB.
Caco-2 permeability assay. Caco-2 cells (ATCC, Manassas, Va.) were cultured in high-glucose DMEM supplemented with 10% FBS and used between passages 30-50. Caco-2 cells were plated on 12-well polyester transwell inserts ([…] pore size) (Coming #3460) at a density of 80,000 cells/cm^2 and grown to 100% confluence (21 days). Filters were rinsed in Hank's balanced salt solution (HBSS) and test compounds (10 μM) were added to either the apical (0.5 mL) or basolateral (1.5 mL) side and incubated at 37° C. with shaking (100 rpm). Samples (200 μL) were removed at 30, 60, and 120 minutes with replacement of an equal volume of the appropriate buffer containing or lacking the compounds. Samples were stored at −20° C. until analysis. After 120 minutes, lucifer yellow was added to the donor chamber, with additional sampling as above at 10, 20, and 30 minutes. Lucifer yellow was analyzed by fluorescence (excitation 450 nm, emission 528 nm) in a Synergy 2 microplate reader. […] Buffer samples (200 μL) were mixed with acetonitrile (100 μL) and acetic acid (2 μL), vortexed and centrifuged at 4° C. for 5 minutes at 12,000 ref. Supernatants (100 μL) were injected onto an Alltech Alltima HP C18 4.6×100 mm 3 μm column and eluted with 38% acetonitrile, 62% aqueous (1% acetic acid in water) at 1.0 mL/min. To improve sensitivity over UV detection, fluorescence (Waters 2475) at the excitation/emission wavelengths of 443/533 and 274/305 (nm) for 1 and 14, respectively, was also detected. Permeability was determined according to Fick's Law. Efflux transport activity was defined as a permeability directional ratio (efflux ratio) ≧2.

Aβ42 fibrils = target: T1, Aβ42 fibrils (Homo sapiens, UniProt P05067); test: Fluorescence polarization binding to Aβ42 fibrils; settings: compound 1 μM, 3 hrs, read-out: apparent binding constant (Kd) for Aβ42 fibrils
T1 construct: The monomers, oligomers and fibrils of Aβ42 were prepared according to established protocols and confirmed by TEM
T1 sequence (P05067 672-713 limits assumed): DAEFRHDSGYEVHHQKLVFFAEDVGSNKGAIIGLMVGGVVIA
Protocol: FIG. 8A-C. BMAOI 14 binds to Aβ42 monomers, oligomers, and fibrils, but not BSA. A. The monomers, oligomers and fibrils of Aβ42 were prepared according to established protocols and confirmed by TEM; B. Compound 14 (1 μM) was incubated with different forms of Aβ42 at indicated concentrations for 3 hrs. Then, fluorescence polarization change of 14 was recorded and the binding affinity was calculated; C. Compound 14 was incubated with BSA as described in B and the binding affinity was calculated.
To determine the binding affinity of 14 to Aβ, we evaluated changes in fluorescence polarization values of this probe at different 14:Aβ ratios for monomeric, oligomeric, and fibrillary Aβ species, respectively. Aβ42 is chosen to evaluate the binding of probe as it is the major and most sticky amyloid peptide found in AD plaques.^1 The formation of different Aβ42 species was confirmed by transmission electron microscope (TEM) as shown in FIG. 8A. […] It appears that 14 binds to Aβ42 with micromolar affinity and slightly favors […] fibrils over monomers and oligomers.

COc1cc(C=CC(=O)C(Cc2cn(CCCCCCNC(=O)CCNC(=O)CCNC(=O)COC3CCC4(C)C(=CCC5C4CCC4(C)C(C(C)CCCC(C)C)CCC54)C3)nn2)C(=O)C=Cc2ccc(O)c(OC)c2)ccc1O (centres unmarked) [BMAOI 14]
inhibition of the formation of AβOs (Western blot) (AβOs [1]): significantly inhibited | formation of AβOs (A11 immunocytochemistry) (AβOs [2]): significantly inhibited | protection of SH-SY5Y cell viability from AβOs (SH-SY5Y cells): completely restored the cell viability | cytotoxic effects in NK cells (NK cells): no cytotoxic effects | Papp A→B at 120 min, 10 µM (in vitro): 7.1 ×10⁻⁶ cm/s | Papp B→A at 120 min, 10 µM (in vitro): 4.7 ×10⁻⁶ cm/s | efflux ratio at 120 min, 10 µM (in vitro): 0.63 | Kd (Aβ42 fibrils): 830 nM

Source: patent publication US9260473B2, “Bivalent multifunctional ligands targeting Aβ oligomers as treatment for Alzheimer's disease” (Virginia Commonwealth University, priority 2010, dated 2016)
